Reference: ChEMBL document CHEMBL1145557, “Pyridine amides as potent and selective inhibitors of 11beta-hydroxysteroid dehydrogenase type 1” (Bioorg Med Chem Lett, 2008)

Assay: Inhibition of human 11-beta HSD in microsomes from HEK293 cells by SPA method

IC50 | Compound
79 nM | CC1CCN(C(=O)c2cccc(COc3c(Cl)cccc3Cl)n2)CC1
7.2 nM | CC1CCN(C(=O)c2cccc(CSc3c(Cl)cccc3Cl)n2)CC1
21 nM | O=C(c1cncc(CS(=O)(=O)c2c(Cl)cccc2Cl)c1)N1CCCCCC1
2140 nM | O=C(c1cncc(CS(=O)(=O)c2c(Cl)cccc2Cl)c1)N1CCCC1
3.6 nM | O=C(c1cccc(-c2ccc(C(F)(F)F)cc2)n1)N1CCCC2CCCCC21 (stereo unspecified)
4.6 nM | O=C(c1cccc(COc2c(Cl)cccc2Cl)n1)N1CCCC2CCCCC21 (stereo unspecified)
1.7 nM | CC1(C)C[C@H]2C[C@](C)(CN2C(=O)c2cncc(COc3c(Cl)cccc3Cl)c2)C1
1.1 nM | CC1(C)CCCN(C(=O)c2cccc(-c3ccc(OC(F)(F)F)cc3)n2)C1
282 nM | CC1CCN(C(=O)c2cccc(Oc3ccccc3Cl)n2)CC1
381 nM | CC1CCN(C(=O)c2cccc(Nc3ccccc3Cl)n2)CC1
235 nM | CC1CCN(C(=O)c2ccc(CSc3ccc(Cl)cc3)cc2)CC1
106 nM | CC1CCN(C(=O)c2ccnc(CS(=O)(=O)c3c(Cl)cccc3Cl)c2)CC1
319 nM | CC1CCN(C(=O)c2cc(CS(=O)(=O)c3c(Cl)cccc3Cl)ccn2)CC1
2.9 nM | CC1(C)CCCN(C(=O)c2cccc(-c3ccccc3Cl)n2)C1
22 nM | CC1CCN(C(=O)c2cncc(CS(=O)(=O)c3c(Cl)cccc3Cl)c2)CC1
6.5 nM | CC1(C)CCCN(C(=O)c2cccc(COc3c(Cl)cc(Cl)cc3Cl)n2)C1

IC50 | Compound
4.7 nM | O=C(c1cccc(-c2ccccc2-c2ccccc2)n1)N1CCCC2CCCCC21 (stereo unspecified)
2 nM | O=C(c1cncc(COc2c(Cl)cccc2Cl)c1)N1CCCCC1c1cccnc1 (stereo unspecified)
2 nM | O=C(c1cccc(-c2ccccc2[N+](=O)[O-])n1)N1CCCC2CCCCC21 (stereo unspecified)
1.1 nM | CC1(C)CCCN(C(=O)c2cccc(-c3ccc(Cl)cc3)n2)C1
218 nM | CC1CCN(C(=O)c2cccc(Sc3ccccc3Cl)n2)CC1
2350 nM | NC(=O)C1CCN(C(=O)c2cncc(CS(=O)(=O)c3c(Cl)cccc3Cl)c2)CC1
> 10000 nM | O=C(c1cncc(CS(=O)(=O)c2c(Cl)cccc2Cl)c1)N1CCOCC1
0.1 nM | Cc1ccc(-c2cccc(C(=O)N3CCCC(C)(C)C3)n2)cc1F
220 nM | O=C(c1cncc(CS(=O)(=O)c2c(Cl)cccc2Cl)c1)N1CCCCC1
2130 nM | CC1CCN(C(=O)c2ccc(CS(=O)(=O)c3c(Cl)cccc3Cl)cn2)CC1
13 nM | CC1CCN(C(=O)c2cccc(CS(=O)(=O)c3c(Cl)cccc3Cl)c2)CC1
11 nM | O=C(c1cncc(CS(=O)(=O)c2c(Cl)cccc2Cl)c1)N1CCCCCCC1
2.5 nM | O=C(c1cncc(CS(=O)(=O)c2c(Cl)cccc2Cl)c1)N1CCCCCCCC1
2050 nM | CC1CCN(C(=O)c2ccc(CS(=O)(=O)c3c(Cl)cccc3Cl)nc2)CC1
4670 nM | CC1CCN(C(=O)c2cccc(S(=O)(=O)c3ccccc3Cl)n2)CC1
